Measurements as given in patent US9012407B2, “Therapies which act on neuropeptide S receptors” (The Regents of the University of California, priority 2004, dated 2015).

Experiments:
Sprague-Dawley rats = assay: Sleep-wake EEG/EMG recording after i.c.v. administration in rats; type: in vivo; settings: for share of first hour of recording spent in wakefulness: saline 45%
Protocol: Rats were implanted with a standard set of electrodes and electroencephalograms (EEG) and electromyograms (EMG) were recorded after i.c.v. administration of NPS. Polygraphic recordings of vigilance states indicate that rats treated with 0.1 nmole and 1.0 nmole of NPS spent up to 69% and 87%, respectively, of the first hour of recording in wakefulness, compared to 45% for saline treatment (F2,21=16.80; p<0.01) (FIG. 7B).
For sleep studies, adult male Sprague-Dawley rats (250-300 g) were implanted under halothane anesthesia (1-2%) with a stainless steel cannula for i.c.v. administration and a standard set of stainless steel screw electrodes for chronic sleep recordings as reported previously (Bourgin et al., 2000). Rats were injected with NPS or vehicle (5 μl) at the beginning of the light cycle and cortical activity was recorded over 6 hours. All animal experiments had been approved by the local IACUC committee and were done in accordance with federal regulations and guidelines on animal experimentation.

C57Bl/6 mice [1] = assay: Open field test; type: in vivo; settings: naive mice, i.c.v.
Protocol: Naïve mice were tested in the open field, a paradigm of free exploratory behavior in a novel environment. […] In order to further study NPS effects on stress as it relates to anxiety, two additional tests were performed that are based on the natural aversion of rodents to open or unprotected spaces: the light-dark box and the elevated plus maze (FIG. 8B, C).
Male C57Bl/6 mice (National Cancer Institute, Bethesda, MD), age 10-14 weeks, were group-housed (4 animals per cage) under controlled conditions (temperature 21±2° C.; relative humidity 50-60%; 12-hour light-dark cycle, lights on 6:00 AM) with free access to food and water. Prior to drug injections, mice were briefly anesthetized with halothane. NPS was dissolved in phosphate-buffered saline (PBS, pH 7.4) and injected i.c.v. (total volume: 2 μl) as described before (Laursen and Belknap, 1986). […]
(§1) Locomotion was monitored in rectangular plexiglass boxes (60×40×50 cm). Horizontal activity was measured over 60 min by 18×12 infrared sensors placed 2 cm above the floor. […] Marble burying was measured in mice placed individually in polypropylene cages (30×18×12 cm) containing 18 glass marbles (1.5 cm diameter) evenly spaced on 5 cm deep rodent bedding (bed-o'cob, The Andersons Inc., Maumee, Ohio) (Njung'e and Handley, 1991). […] Cages were covered with a metal grid and the number of marbles covered at least two-thirds was counted after 30 min.

C57Bl/6 mice [2] = assay: Light-dark box; type: in vivo
Protocol: Male C57Bl/6 mice (National Cancer Institute, Bethesda, MD), age 10-14 weeks, were group-housed (4 animals per cage) under controlled conditions (temperature 21±2° C.; relative humidity 50-60%; 12-hour light-dark cycle, lights on 6:00 AM) with free access to food and water. Prior to drug injections, mice were briefly anesthetized with halothane. NPS was dissolved in phosphate-buffered saline (PBS, pH 7.4) and injected i.c.v. (total volume: 2 μl) as described before (Laursen and Belknap, 1986). Mice were allowed to recover for 5 min and then placed in the observation apparatus.
Locomotion was monitored in rectangular plexiglass boxes (60×40×50 cm). Horizontal activity was measured over 60 min by 18×12 infrared sensors placed 2 cm above the floor. A second row of sensors at 8 cm above the floor was used to record rearing events. The imaginary central zone was defined as a 30×20 cm rectangle in the middle of each observation area. Data were collected using MatLab (Mathworks, Natick, Mass.). Experimental procedures for open field, elevated plus-maze and light-dark box were described previously (Köster et al., 1999). Marble burying was measured in mice placed individually in polypropylene cages (30×18×12 cm) containing 18 glass marbles (1.5 cm diameter) evenly spaced on 5 cm deep rodent bedding (bed-o'cob, The Andersons Inc., Maumee, Ohio) (Njung'e and Handley, 1991). No food or water was present during the observation period. Cages were covered with a metal grid and the number of marbles covered at least two-thirds was counted after 30 min.

C57Bl/6 mice [3] = assay: Marble-burying paradigm; type: in vivo; settings: 30 min observation, 18 marbles per cage, i.c.v.
Description: Many anxiolytic drugs increase exploratory activity in the open field, light-dark box or elevated plus maze paradigms. However, compounds stimulating locomotion could produce false-positive effects in these tests because the enhanced exploration could be secondary to the increase in general activity. In order to validate the observed anxiolytic-like effects of NPS, we tested increasing doses of NPS in the marble-burying paradigm. Mice tend to bury objects such as glass marbles present in their environment. Anxiolytic drugs such as benzodiazepines reduce the number of marbles buried over a fixed period of time. […]
as §1

NPSR Ile^107 = target: T1, NPSR Ile^107 (Homo sapiens, UniProt Q6W5P4, N107I); assay: CRE-luciferase reporter gene assay, HEK 293 cells, NPSR Ile107; type: cell-based; settings: transiently transfected HEK cells
T1 construct: The Ile^107 isoform of NPSR was generated by PCR using synthetic oligonucleotides and the Quik Change Site-Directed Mutagenesis kit from Stratagene; expressed in transfected cells
T1 sequence (Q6W5P4 1-371 N107I): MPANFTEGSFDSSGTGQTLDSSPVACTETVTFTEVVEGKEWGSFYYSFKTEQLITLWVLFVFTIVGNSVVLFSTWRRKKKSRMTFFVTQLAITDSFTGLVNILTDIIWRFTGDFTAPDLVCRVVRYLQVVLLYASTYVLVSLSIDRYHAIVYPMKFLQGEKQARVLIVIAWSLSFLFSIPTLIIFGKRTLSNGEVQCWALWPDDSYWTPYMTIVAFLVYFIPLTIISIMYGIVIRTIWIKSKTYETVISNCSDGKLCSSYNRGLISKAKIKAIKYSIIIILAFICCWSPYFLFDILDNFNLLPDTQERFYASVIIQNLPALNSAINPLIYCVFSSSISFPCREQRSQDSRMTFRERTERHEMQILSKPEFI
Description: HEK 293 cells were stably transfected with a reporter gene containing 6 copies of a cAMP response element (CRE; sequence […]) in front of a luciferase reporter gene (Promega) cloned into pcDNA3.1 neo. One stable clone showing robust induction of reporter gene expression after forskolin challenge was chosen for further experiments. The different NPSR isoform cDNAs (cloned into pcDNA3.1 hygro) were transfected into these cells using lipofectamine and stable clones were selected. The same cells and procedures were also used for transient transfection. For induction of reporter gene expression cells were plated in 96-well plates and incubated with agonist for 5 hours in serum-free medium, followed by aspiration of the medium and cell lysis with 25 mM Tris-phosphate, pH 7.8, 2 mM dithiothreitol, 2 mM 1,2-diaminocyclohexane-N,N,N′,N′,-tetraacetic acid, 10% glycerol, 1% Triton X-100. After one freeze-thaw cycle aliquots of supernatant were transferred to white clear-bottom 96-well plates (Greiner) and luciferase content was quantified by bioluminescence (Luc-Screen, Applied Biosystems). Plates were counted in a scintillation counter using bioluminescence settings (MicroBeta, Wallac-Perkin Elmer).

[4] = tested on: human colon cancer cell line DLD-1; assay: Cell proliferation, [3H]-thymidine incorporation in DLD-1 cells (negative control line); type: cell-based; settings: no NPSR transcripts
Protocol: Cells were seeded in 24-well plates and grown overnight to 60-70% confluency. Following 24 h serum-starvation, 2 μCi of methyl-[^3H] thymidine was added together with increasing concentrations of NPS. 500 nM PGE2 served as a positive control. After 3 h incubation cells were washed 3 times with PBS and then lysed with 0.5 N NaOH. The lysate was neutralized with 0.5 N HCl and aliquots were counted in a liquid scintillation counter for incorporated radioactivity.

[5] = i.c.v., rats, compared with saline

Q: What does the source list for “NPS: neuropeptide S, endogenous NPSR ligand; species of the peptide not stated at the place of the result (SFRNGVGTGMKKTSFQRAKS)”?
A: share of first hour of recording spent in wakefulness (Sprague-Dawley rats; 0.1 nmole i.c.v., rats): up to 69%; share of first hour of recording spent in wakefulness (Sprague-Dawley rats; 1.0 nmole i.c.v., rats): ≤ 87%; rebound in amount of non-REM sleep, increase vs. saline (Sprague-Dawley rats; fourth hour post injection, rats): 48%; mean duration of wakefulness episodes (Sprague-Dawley rats; i.c.v., rats, compared to saline group): significant increase; amount of REM sleep (Sprague-Dawley rats; [5]): significantly reduced; amount of slow wave sleep stage 1 (SWS1) (Sprague-Dawley rats; [5]): significantly reduced; amount of slow wave sleep stage 2 (SWS2) (Sprague-Dawley rats; [5]): significantly reduced; rebound in amount of non-REM sleep, increase vs. saline (Sprague-Dawley rats; second hour post injection, rats): 20%; duration of arousal effect (Sprague-Dawley rats; single i.c.v. administration): within the first hour post injection; number of entries in the central zone (C57Bl/6 mice [1]; first 10 minutes): significantly increased; ambulations in the outer zones of the open field (C57Bl/6 mice [1]; same doses): increased; percentage of entries in the light area (C57Bl/6 mice [2]; 0.03-3 nmole i.c.v.): higher percentage; time in the light area (C57Bl/6 mice [2]; 0.03-3 nmole i.c.v.): prolonged time; number of transitions between the two compartments (C57Bl/6 mice [2]; 0.1-3 nmole i.c.v.): significantly increased; latency until first exit from the dark compartment (C57Bl/6 mice [2]; 0.3-3 nmole i.c.v.): significantly reduced; number of marbles buried (C57Bl/6 mice [3]): dose-dependently reduced; maximum of reporter gene expression relative to NPSR WT or NPSR C-alt (NPSR Ile^107): about 2 fold; thymidine incorporation [4]: no NPS-dependent thymidine incorporation
